This passage reports Ki and IC50 results from US20240190847A1, “INDOLINE DERIVATIVES AS DDR1 AND DDR2 INHIBITORS” (CHIESI FARMACEUTICI S.P.A., priority 2021, published 2024).

One assay concerns the target DDR1. Kind of assay: DDR1 LanthaScreen Europium Kinase Binding assay. As for the experimental part: (§1) DDR1 and DDR2 binding assays were performed using Life Technologies LanthaScreen™ Europium Kinase Binding assay. The compounds were incubated with 5 nM DDR1 (Carna Biosciences) or 5 nM DDR2 (Life Technologies) for 1 hour at room temperature in white 384-well OptiPlate (PerkinElmer), containing 20 nM or 10 nM Kinase Tracer 178 respectively and 2 nM Europium labelled anti-GST antibody (Life Technologies) in assay buffer (50 mM HEPES pH 7.5, 10 mM MgCl2, 1 mM EGTA and 0.01% BRIJ35). The ratio of fluorescence emission 665 nm/615 nm after excitation at 340 nm was obtained using the Tecan Spark 20M plate reader. IC50 values were determined in GraphPad Prism 8.0 software, using 4 parameter model: log(inhibitor) vs. response. IC50 values were converted in Ki using the Cheng-Prusoff equation (Ki=IC50/(1+[Tracer]/Kd).

In a further assay the target is DDR2. Kind of assay: DDR2 LanthaScreen Europium Kinase Binding assay. The method, then:
as §1
For orientation: In TR-FRET formats the signal depends on donor and acceptor labels being close together.

Another assay has as its system DDR1 receptor. Kind of assay: DDR1 cell based assay (PathHunter U2OS DDR1). Conditions: U2OS-DDR1 cells, bovine Type II Collagen 20 μg/ml stimulation. As for the experimental part: The inhibition of DDR1 receptor activation by compounds was evaluated by PathHunter® U2OS DDR1 assay (Eurofins DiscoverX), according to the manufacturer's instructions. Briefly, U2O5-DDR1 cells were seeded in white 384-well plates at a density of 5000 cells/well and incubated for 2 hours at 37° C. and 5% CO2. Cells were then treated with compounds at different concentrations and incubated for 30 minutes, before stimulation with bovine Type II Collagen 20 μg/ml and incubation overnight at 37° C. and 5% CO2. PathHunter Detection Reagents were prepared according to the protocol provided by DiscoverX and 20 μl/well of this mix were added to each well. After incubating the plates for 1 hour at room temperature in the dark, luminescence signal was acquired with a plate reader. Raw data were normalized to vehicle control (0% for normalization) and positive control (100% for normalization; cells treated with 20 μg/ml collagen II) and IC50 parameters were calculated in GraphPad Prism 8.0 software, using sigmoidal dose-response curve fitting with variable slope.

The mark [1] stands for this setting: 5 nM DDR1, 1 hour at room temperature, Ki from IC50 by Cheng-Prusoff, read-out: Ki DDR1.
[2] abbreviates: 5 nM DDR2, 1 hour at room temperature, Ki from IC50 by Cheng-Prusoff, read-out: Ki DDR2.

As usually defined, the Ki is a dissociation constant, usually derived from enzyme kinetics or from competition with a known ligand. For orientation: IC50 means the concentration at which inhibition is half-maximal.

Where two headings read alike, the source gives them in different places.

Take `CN1CCN(Cc2cc(C(=O)Nc3ccc4c(c3)N(Cc3cnc(N)nc3)CC4)cc(C(F)(F)F)c2)CC1` [Example 21, N-(1-((2-aminopyrimidin-5-yl)methyl)indolin-6-yl)-3-((4-methylpiperazin-1-yl)methyl)-5-(trifluoromethyl)benzamide]: the Ki on DDR1 (setting [1]) and on DDR2 (setting [2]) was less than 25 nM each time. In the assay on DDR1 receptor, the concentration for half-maximal inhibition (IC50) lay in the range of 50 to 80 nM.

Turning to `CN(C)CCn1cc(Nc2ncc(CN3CCc4ccc(C(=O)Nc5cc(CN6CCN(C)CC6)cc(C(F)(F)F)c5)cc43)cn2)cn1` [Example 20, 1-((2-((1-(2-(dimethylamino)ethyl)-1H-pyrazol-4-yl)amino)pyrimidin-5-yl)methyl)-N-(3-((4-methylpiperazin-1-yl)methyl)-5-(trifluoromethyl)phenyl)indoline-6-carboxamide], the Ki at DDR1 (setting [1]) and on DDR2 (setting [2]) was less than 25 nM in each case. The same molecule showed an IC50 in the assay on DDR1 receptor of 50 to 80 nM.

On to `CN1CCN(Cc2ccc(NC(=O)c3ccc4c(c3)N(Cc3cnc(N)cn3)CC4)cc2C(F)(F)F)CC1` [Example 11, 1-((5-aminopyrazin-2-yl)methyl)-N-(4-((4-methylpiperazin-1-yl)methyl)-3-(trifluoromethyl)phenyl)indoline-6-carboxamide], for which the Ki on DDR1 (setting [1]) and on DDR2 (setting [2]) was less than 25 nM in each case. The molecule also returned an IC50 in the assay on DDR1 receptor of less than 25 nM.

For `CN1CCN(Cc2ccc(NC(=O)c3ccc4c(c3)N(Cc3cncnc3N)CC4)cc2C(F)(F)F)CC1` [Example 10, 1-((4-aminopyrimidin-5-yl)methyl)-N-(4-((4-methylpiperazin-1-yl)methyl)-3-(trifluoromethyl)phenyl)indoline-6-carboxamide], the Ki on DDR1 (setting [1]) and at DDR2 (setting [2]) was less than 25 nM in each case. For the same molecule, the IC50 in the assay with DDR1 receptor was less than 25 nM.

Regarding `Cc1cn(-c2cc(NC(=O)c3ccc4c(c3)N(c3cncnc3)CC4)cc(C(F)(F)F)c2)cn1` [Example C2, N-(3-(4-methyl-1H-imidazol-1-yl)-5-(trifluoromethyl)phenyl)-1-(pyrimidin-5-yl)indoline-6-carboxamide, reference compound], the Ki came out at 58000 nM at DDR1 (read-out: DDR1 Ki) and 4000 nM at DDR2 (read-out: DDR2 Ki).

`CC(=O)Nc1ncc(CN2CCc3ccc(C(=O)Nc4ccc(CN5CCN(C)CC5)c(C(F)(F)F)c4)cc32)cn1` [Example 15, 1-((2-acetamidopyrimidin-5-yl)methyl)-N-(4-((4-methylpiperazin-1-yl)methyl)-3-(trifluoromethyl)phenyl)indoline-6-carboxamide]: the Ki on DDR1 (setting [1]) was less than 25 nM. Further, the half-maximal inhibitory concentration (IC50) with DDR1 receptor is less than 25 nM.

As to `CN1CCN(Cc2cc(C(=O)Nc3ccc4c(c3)N(c3cncnc3)CC4)cc(C(F)(F)F)c2)CC1` [Example C3, 3-((4-methylpiperazin-1-yl)methyl)-N-(1-(pyrimidin-5-yl)indolin-6-yl)-5-(trifluoromethyl)benzamide, reference compound], the Ki on DDR1 (read-out: DDR1 Ki) and on DDR2 (read-out: DDR2 Ki) was 58000 nM each time.

Take `Cc1cn(-c2cc(NC(=O)c3ccc4c(c3)N(Cc3cncnc3)CC4)cc(C(F)(F)F)c2)cn1` [Example 1, N-(3-(4-methyl-1H-imidazol-1-yl)-5-(trifluoromethyl)phenyl)-1-(pyrimidin-5-ylmethyl)indoline-6-carboxamide]: the Ki at DDR1 (setting [1]) and on DDR2 (setting [2]) was less than 25 nM in each case. The same molecule displayed a concentration for half-maximal inhibition (IC50) with DDR1 receptor of 50 to 80 nM.

With `CNc1ncc(CN2CCc3ccc(C(=O)Nc4ccc(CN5CCN(C)CC5)c(C(F)(F)F)c4)cc32)cn1` [Example 12, 1-((2-(methylamino)pyrimidin-5-yl)methyl)-N-(4-((4-methylpiperazin-1-yl)methyl)-3-(trifluoromethyl)phenyl)indoline-6-carboxamide], the inhibitory constant (Ki) on DDR1 (setting [1]) was less than 25 nM; on DDR2 (setting [2]), 25 to 50 nM. This molecule also showed an IC50 with DDR1 receptor of less than 25 nM.

Regarding `CN1CCN(Cc2cc(NC(=O)c3ccc4c(c3)N(c3cncnc3)CC4)cc(C(F)(F)F)c2)CC1` [Example C1, N-(3-((4-methylpiperazin-1-yl)methyl)-5-(trifluoromethyl)phenyl)-1-(pyrimidin-5-yl)indoline-6-carboxamide, reference compound], the Ki at DDR1 (read-out: DDR1 Ki) came out at 30000 nM; on DDR2 (read-out: DDR2 Ki), 50000 nM.
